Reference: patent US8372885B2, “Organic compounds and their uses” (Novartis AG, priority 2008, dated 2013)

The molecules below were run against T1, P. aeruginosa LpxC (Pseudomonas aeruginosa, UniProt P47205) (assay: biochemical). Conditions: 1 nM P. aeruginosa LpxC, 30 min pre-incubation, 2 μM UDP-3-O-(R-3-hydroxydecanoyl)-GlcNAc, pH 7.5, room temperature; read-out: IC50 (LpxC inhibitory activity).
T1 construct: made in house
T1 sequence (P47205 1-303): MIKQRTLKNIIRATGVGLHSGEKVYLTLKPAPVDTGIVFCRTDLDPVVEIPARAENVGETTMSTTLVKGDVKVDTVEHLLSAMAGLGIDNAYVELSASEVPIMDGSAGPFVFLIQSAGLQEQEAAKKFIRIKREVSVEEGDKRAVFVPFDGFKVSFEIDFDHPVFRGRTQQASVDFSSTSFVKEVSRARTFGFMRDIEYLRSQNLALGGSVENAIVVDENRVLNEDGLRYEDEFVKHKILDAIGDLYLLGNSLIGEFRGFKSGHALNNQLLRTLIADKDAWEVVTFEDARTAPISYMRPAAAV
Excerpt: The LC-MS/MS method for quantitation of LpxC product was developed using an Agilent 1200 Capillary HPLC system coupled to an Applied Biosystems MDS Sciex 4000QTRAP mass spectrometer. Both instruments are controlled using the Applied Biosystems MDS Sciex Analyst software. LpxC reaction product (UDP-3-O—(R-3-hydroxyacyl)-glucosamine) was produced by hydrolysis of LpxC substrate catalyzed by P. a. LpxC and purified using reversed phase chromatography on a Phenomenex Luna C18(2) 4.6×50 mm column. An LpxC product calibration curve was generated to evaluate the sensitivity and dynamic range of the LC-MS/MS method. Briefly, compounds are pre-incubated with 1 nM P. aeruginosa LpxC for 30 min. at room temperature. Reactions are initiated by the addition of 2 μM UDP-3-O—(R-3-hydroxydecanoyl)-GlcNAc. Reactions are conducted in a 96-well plate with a total volume of 100 μL in each well containing 50 mM Sodium phosphate pH 7.5, 0.005% Trition X-100 for 20 min at room temperature. After quenching with 1.8% HOAc (10 μL of a 20% HOAc added to each well), reaction mixtures are analyzed using the LC-MS/MS method and peak areas are transformed into product concentration using a LpxC product calibration curve. […] For IC50 determinations, peak areas are converted to percent inhibition in Microsoft Excel. Percent inhibition values are plotted vs. log compound concentration using XLfit. Data is fit to the four-parameter logistic equation using the non-linear regression algorithm in XLfit to return the IC50 and hill slope values.

| SMILES | IC50 [nM] |
| --- | --- |
| C=C(C)C#CCOc1ccc(C(=O)N[C@H](C(=O)NO)C(C)(C)N)cc1 [Example 43] | 1 |
| CC#CCOc1ccc(C(=O)N[C@H](C(=O)NO)[C@@H](C)N)c(F)c1 [Example 9, N-((1S,2R)-2-Amino-1-hydroxycarbamoyl-propyl)-4-but-2-ynyloxy-2-fluoro-benzamide] | 74.5 |
| CC(C)(N)[C@H](NC(=O)c1ccc(OCCC2CC2)cc1)C(=O)NO [Example 83] | 8 |
| C[C@@H](N)[C@H](NC(=O)c1ccc(OCC#CC2CCC2)cc1)C(=O)NO [Example 58] | 6.5 |
| CCCCCC#CCNc1ccc(C(=O)N[C@@H](CN)C(=O)NO)cn1 [Example 28] | 55.7 |
| C[C@@H](N)[C@H](NC(=O)c1ccc(OCCC2CC2)cc1)C(=O)NO [Example 49] | 24.6 |
| CC(C)(N)[C@H](NC(=O)c1ccc(OCC2CC2)cc1)C(=O)NO [Example 82] | 18 |
| CC#CCOc1ccc(C(=O)NC(C(=O)NO)C(C)(C)N)cc1C (stereo not drawn) [Example 54] | 16.7 |
| C[C@@H](N)[C@H](NC(=O)c1ccc(OCC#Cc2ccoc2)cc1)C(=O)NO [Example 61] | 3 |
| C#CC(C)(C)Oc1ccc(C(=O)NC(C(=O)NO)C(C)(C)N)cc1 (stereo not drawn) [Example 24] | 1.4 |
| CC#CCOc1ccc(C(=O)N[C@H](C(=O)NO)C(C)(C)N)c(O)c1 [Example 74] | 3 |
| C#C/C=C/COc1ccc(C(=O)N[C@H](C(=O)NO)[C@@H](C)N)cc1 [Example 46] | 5.5 |
| COCC#C/C=C/COc1ccc(C(=O)N[C@H](C(=O)NO)C(C)(C)N)cc1 [Example 71] | 1 |
| C#CCOc1ccc(C(=O)N[C@H](C(=O)NO)[C@@H](C)N)cc1 [Example 29] | 38.9 |
| C[C@@H](N)[C@H](NC(=O)c1ccc(C#CCOc2ccccc2)cc1)C(=O)NO [Example 18] | 7.6 |
| CCC#CCOc1ccc(C(=O)NC(C(=O)NO)C(C)(C)N)cc1 (stereo not drawn) [Example 21] | 1 |
| CC#CC(C)Oc1ccc(C(=O)N[C@H](C(=O)NO)[C@@H](C)N)cc1 (stereo partly drawn) [Example 31] | 141 |
| CC#CCOc1ccc(C(=O)N[C@H](C(=O)NO)C(C)(C)N)cc1F [Example 35] | 2.6 |
| C=C/C=C/COc1ccc(C(=O)NC(C(=O)NO)C(C)(C)N)cc1 (stereo not drawn) [Example 41] | 2.1 |
| CCCCOc1ccc(C(=O)N[C@H](C(=O)NO)C(C)(C)N)cc1 [Example 37] | 4 |
| CC#CCSc1ccc(C(=O)NC(C(=O)NO)C(C)(C)N)cc1 (stereo not drawn) [Example 52] | 4.4 |
| CC(C)C#CCOc1ccc(C(=O)N[C@H](C(=O)NO)C(C)(C)N)cc1 [Example 53] | 5.5 |
| CC#CCOc1ccc(C(=O)N[C@H](C(=O)NO)C(C)(C)NC)cc1 [Example 59] | 3.2 |
| Cc1ccc(C#CCOc2ccc(C(=O)N[C@H](C(=O)NO)C(C)(C)N)cc2)cc1 [Example 66] | 1240 |
| CC#CCNc1ccc(C(=O)N[C@H](C(=O)NO)[C@@H](C)N)cc1 [Example 42] | 27.3 |

Other lines, results leading:

| IC50 [nM] | SMILES |
| --- | --- |
| 15.9 | CC#CCOc1ccc(C(=O)NC(C(=O)NO)C(C)(C)N)c(F)c1F (stereo not drawn) [Example 36] |
| 13.7 | CC#CCOc1ccc(C(=O)NC(C(=O)NO)C2(N)CC2)cc1 (stereo not drawn) [Example 1, N-(1-(1-aminocyclopropyl)-2-(hydroxyamino)-2-oxoethyl)-4-(but-2-ynyloxy)benzamide] |
| 34.6 | CC#CCOc1c(Cl)cc(C(=O)NC(C(=O)NO)C(C)(C)N)cc1Cl (stereo not drawn) [Example 40] |
| 0.7 | CC#CCOc1ccc(-c2ccc(C(=O)N[C@H](C(=O)NO)C(C)(C)N)cc2)cc1 [Example 22] |
| 128 | CC#CCOc1ccc(C(=O)N[C@@H](CN)C(=O)NO)cc1 [Example 51] |
| 231 | CC#CC(C)Oc1ccc(C(=O)N[C@H](C(=O)NO)[C@@H](C)N)cc1 (stereo partly drawn) [Example 32] |
| 10.2 | CC(C)=CCC/C(C)=C/COc1ccc(C(=O)N[C@H](C(=O)NO)[C@@H](C)N)cc1 [Example 48] |
| 413 | COc1ccc(C#CCOc2ccc(C(=O)N[C@H](C(=O)NO)C(C)(C)N)cc2)cc1 [Example 69] |
| 1 | CC(C)(N)[C@H](NC(=O)c1ccc(OCC#Cc2ccccc2)cc1)C(=O)NO [Example 80] |
| 35.6 | C[C@@H](N)[C@H](NC(=O)c1ccc(OCCCC#Cc2ccccc2)cc1)C(=O)NO [Example 30] |
| 8 | CC(C)=CC#CCOc1ccc(C(=O)N[C@H](C(=O)NO)[C@@H](C)N)cc1 [Example 60] |
| 2 | CC(C)(N)[C@H](NC(=O)c1ccc(OC/C=C/C#CCCO)cc1)C(=O)NO [Example 15, N-((S)-2-Amino-1-hydroxycarbamoyl-2-methyl-propyl)-4-((E)-7-hydroxy-hept-2-en-4-ynyloxy)-benzamide] |
| 2700 | CC#CCOc1ccc(C(=O)N[C@@H](CCCN)C(=O)NO)cc1 [Example 10, N-((S)-4-Amino-1-hydroxycarbamoyl-butyl)-4-but-2-ynyloxy-benzamide] |
| 35.1 | CC#CCCOc1ccc(C(=O)NC(C(=O)NO)C(C)(C)N)cc1 (stereo not drawn) [Example 25] |
| 540 | CC(C)(N)[C@H](NC(=O)c1ccc(OCC#Cc2ccc3c(c2)CCO3)cc1)C(=O)NO [Example 67] |
| 30 | C/C=C/COc1ccc(C(=O)N[C@H](C(=O)NO)[C@@H](C)N)cc1 [Example 57] |
| 151 | CC#CCOc1ccc(C(=O)NC(C(=O)NO)C(C)(C)N)cc1OC (stereo not drawn) [Example 39] |
| 1 | CC(C)(N)[C@H](NC(=O)c1ccc(OC/C=C/C#CCO)cc1)C(=O)NO [Example 72] |
| 1 | CC(C)(N)[C@H](NC(=O)c1ccc(OCC#Cc2ccccn2)cc1)C(=O)NO [Example 79] |
| 6 | CC(C)(N)[C@H](NC(=O)c1ccc(OCC#CC2=CCC(N)CC2)cc1)C(=O)NO (stereo partly drawn) [Example 75] |
| 6.5 | CC#CCOc1ccc(C(=O)N[C@H](C(=O)NO)C(C)(C)O)cc1 [Example 20] |
| 4.1 | CC#CCOc1c(F)cc(C(=O)NC(C(=O)NO)C(C)(C)N)cc1F (stereo not drawn) [Example 56] |
| 73.3 | CC#CC(C)(C)Oc1ccc(C(=O)N[C@H](C(=O)NO)[C@@H](C)N)cc1 [Example 27] |
| 3.7 | CC(C)=CCOc1ccc(C(=O)NC(C(=O)NO)C(C)(C)N)cc1 (stereo not drawn) [Example 47] |
| 2 | COc1cccc(C#CCOc2ccc(C(=O)N[C@H](C(=O)NO)C(C)(C)N)cc2)c1 [Example 70] |
| 0.4 | CC(C)(N)[C@H](NC(=O)c1ccc(OCC#CC2CC2)cc1)C(=O)NO [Example 38] |
| 10 | CC(C)(N)[C@H](NC(=O)c1ccc(OCC#Cc2cccnc2)cc1)C(=O)NO [Example 78] |
| 23 | CC(C)(C)C#CCOc1ccc(C(=O)NC(C(=O)NO)C(C)(C)N)cc1 (stereo not drawn) [Example 4, N-(3-amino-1-(hydroxyamino)-3-methyl-1-oxobutan-2-yl)-4-(4,4-dimethylpent-2-ynyloxy)benzamide] |

Same assay, conditions: IC50 (LpxC inhibitory activity), 1 nM P. aeruginosa LpxC, 30 min pre-incubation, 2 μM UDP-3-O-(R-3-hydroxydecanoyl)-GlcNAc, pH 7.5, room temperature

| SMILES | IC50 [nM] |
| --- | --- |
| CC#CCOc1ccc(C(=O)N[C@@H](C(=O)NO)[C@@H](N)C(C)C)cc1 [Example 26] | 70 |
| CC#CCOc1ccc(C(=O)N[C@H](C(=O)NO)[C@@H](C)N)cc1 [Example 16] | 8.7 |
| CC#CCOc1ccc(C(=O)N[C@H](C(=O)NO)[C@H](N)C2CC2)cc1 [Example 5, N-((1R,2S)-1-amino-1-cyclopropyl-3-(hydroxyamino)-3-oxopropan-2-yl)-4-(but-2-ynyloxy)benzamide] | 124 |
| CC#CCOc1ccc(C(=O)N[C@H](C(=O)NO)[C@H](N)C(C)C)cc1 [Example 33] | 268 |
